Assay results taken from US20210170002A1, “SLC45A2 PEPTIDES FOR IMMUNOTHERAPY” (Board of Regents, The University of Texas System, priority 2015, published 2021).

What was measured:
melanoma cells = test: 51Cr release assay of SLC45A2-specific CD8 T cells against inhibitor-treated melanoma cells; assay type: cell-based, human; details: melanoma cells treated for 48 hours
Method: SLC45A2-specific CD8 T cells were assayed for specific lysis of SLC45A2-expressing or not expressing targets using standard 51Chromium (51Cr) release assay. Targets were labeled with 100 uCi of 51Cr for 2 hrs and after three times washing, the labeled targets plated triplicated well at a 2000 targets per well. Effector cells were incubated with targets as various effector:target (E:T) ratio. After 4 hours, 30 ul of supernatant was collected from each well and the 51Cr was measured by a gamma counter. The percentage of specific lysis was calculated.
(§1) Mel526 and A375 (BRAF V600E+) and MeWo (BRAF wild type) were treated with BRAF V600E inhibitor, dabrafenib (50 nM), or MEK inhibitor, Trametinib (50 nM) (GlaxoSmithKline) or both for 48 hours. Untreated melanomas were used as control.
Like other melanocyte differentiation proteins such as MART-1, gp100 and tyrosinase, the SLC45A2 gene is regulated by the MITF transcription factor (J Biol Chem, 2002, 277:402-406, Gen Soci Ame, 2008 178:761-769). MITF protein levels are suppressed by oncogenic BRAF through ERK-mediated phosphorylation and degradation (J Cell Biol, 2005, 170:703-708). […] Melanoma cells were treated with a specific inhibitor of BRAF V600E, dabrafenib (50 nM), or a MEK inhibitor, Trametinib (50 nM), or both for 48 hours and mRNA expression of SLC45A2 and MART-1 was analyzed by RT-PCR. […]

[1] = tested on: mRNA expression of SLC45A2 and MART-1; test: RT-PCR of SLC45A2 and MART-1 mRNA after MAPK pathway inhibitor treatment; assay type: cell-based, human; details: 50 nM, 48 hours
Method: Real time PCR was done with primers of SLC45A2, MART-1, gp100, and tyrosinase using power syber green PCR master mix (Applied biosystems life technologies). Values were normalized by the amount of the gene encoding GAPDH.
as §1
Like other melanocyte differentiation proteins such as MART-1, gp100 and tyrosinase, the SLC45A2 gene is regulated by the MITF transcription factor (J Biol Chem, 2002, 277:402-406, Gen Soci Ame, 2008 178:761-769). MITF protein levels are suppressed by oncogenic BRAF through ERK-mediated phosphorylation and degradation (J Cell Biol, 2005, 170:703-708). Thus, it was next investigated whether BRAF or MEK inhibitors can modulate SLC45A2 expression. Melanoma cells were treated with a specific inhibitor of BRAF V600E, dabrafenib (50 nM), or a MEK inhibitor, Trametinib (50 nM), or both for 48 hours and mRNA expression of SLC45A2 and MART-1 was analyzed by RT-PCR. […] To assess the killing effect of SCL45A2-specific CD8 T cells against melanoma cells after treatment with BRAF and MEK inhibitors, a ^51Cr release assay was performed in melanoma cells treated with a BRAF inhibitor, a MEK inhibitor or both for 48 hours.

Structure (SMILES)	cytotoxicity of SLC45A2-specific CD8 T cells against treated vs untreated melanoma cells (melanoma cells)	mRNA expression of SLC45A2 and MART-1 ([1]; MeWo cells (wild type BRAF))	mRNA expression of SLC45A2 and MART-1 ([1]; Mel526 cells (BRAF V600E))
CC(=O)Nc1cccc(-n2c(=O)n(C3CC3)c(=O)c3c(Nc4ccc(I)cc4F)n(C)c(=O)c(C)c32)c1 [Trametinib]	increased cytotoxicity		
CC(C)(C)c1nc(-c2cccc(NS(=O)(=O)c3c(F)cccc3F)c2F)c(-c2ccnc(N)n2)s1 [dabrafenib]	increased cytotoxicity	did not show an increased expression	significant increase
